Source: ChEMBL document CHEMBL1127973, “A comparative molecular field analysis derived model of the binding of taxol analogues to microtubules” (Bioorg Med Chem Lett, 1994)

Experiments:
Tubulin (Homo sapiens) [1] = target: T1, Tubulin (Homo sapiens) (UniProt P68371+Q9H4B7+P0DPH7+P68366+Q13509+Q71U36+P04350+Q3ZCM7+P07437+P68363+Q9BQE3+Q6PEY2+Q13885+Q9BVA1+Q9BUF5); assay: Binding affinity to microtubules, activity expressed as ID50 of compound/ID50 of paclitaxel; assay type: protein-complex assay
Tubulin (Homo sapiens) [2] = target: T1, Tubulin (Homo sapiens); assay: Binding affinity to microtubules, activity expressed as log 1/ID50 of compound/ID50 of paclitaxel; assay type: protein-complex assay

ID50 ratio (Tubulin (Homo sapiens) [1]) | Log 1/ratio (Tubulin (Homo sapiens) [2]) | Compound
23 | -1.37 | CC(=O)O[C@@]12CO[C@@H]1C[C@H](O)[C@@]1(C)C(=O)[C@H](O)C3=C(C)[C@@H](OC(=O)/C=C/c4ccccc4)C[C@@](O)([C@@H](OC(=O)c4ccccc4)[C@H]21)C3(C)C
0.5 | 0.301 | CC(=O)O[C@@]12CO[C@@H]1C[C@H](O)[C@@]1(C)C(=O)[C@H](O)C3=C(C)[C@@H](OC(=O)[C@H](O)[C@@H](NC(=O)OC(C)(C)C)c4ccccc4)C[C@@](O)([C@@H](OC(=O)c4ccccc4)[C@H]21)C3(C)C (stereo in doubt; 39)
0.8 | 0.0969 | CCCCOC(=O)N[C@@H](c1ccccc1)[C@@H](O)C(=O)O[C@H]1C[C@@]2(O)[C@@H](OC(=O)c3ccccc3)[C@@H]3[C@]4(OC(C)=O)CO[C@@H]4C[C@H](O)[C@@]3(C)C(=O)[C@H](OC(C)=O)C(=C1C)C2(C)C
7.1 | -0.851 | CC(=O)O[C@H]1C(=O)[C@@]2(C)[C@H]([C@H](OC(=O)c3ccccc3)[C@]3(O)C[C@H](OC(=O)[C@H](O)[C@@H](NC(=O)c4ccccc4)c4ccc5ccccc5c4)C(C)=C1C3(C)C)[C@]1(OC(C)=O)CO[C@@H]1C[C@@H]2O
0.8 | 0.0969 | CC(=O)O[C@H]1C(=O)[C@@]2(C)[C@H]([C@H](OC(=O)c3ccccc3)[C@]3(O)C[C@H](OC(=O)[C@H](O)[C@@H](NC(=O)c4ccccc4)c4ccc(O)cc4)C(C)=C1C3(C)C)[C@]1(OC(C)=O)CO[C@@H]1C[C@@H]2O
30 | -1.48 | CC(=O)O[C@H]1C(=O)[C@@]2(C)[C@H]([C@H](OC(=O)c3ccccc3)[C@]3(O)C[C@H](OC(=O)[C@@H](O)[C@H](NC(=O)OC(C)(C)C)c4ccccc4)C(C)=C1C3(C)C)[C@]1(OC(C)=O)CO[C@@H]1C[C@@H]2O
110 | -2.04 | CC(=O)O[C@H]1C(=O)[C@@]2(C)[C@H]([C@H](OC(=O)c3ccccc3)[C@]3(O)C[C@H](OC(=O)[C@@H](NC(=O)c4ccccc4)[C@H](O)c4ccccc4)C(C)=C1C3(C)C)[C@]1(OC(C)=O)CO[C@@H]1C[C@@H]2O
160 | -2.2 | CC(=O)O[C@@]12CO[C@@H]1C[C@H](O)[C@@]1(C)C(=O)[C@H](O)C3=C(C)[C@@H](OC(=O)[C@@H](NC(=O)OC(C)(C)C)[C@H](O)c4ccccc4)C[C@@](O)([C@@H](OC(=O)c4ccccc4)[C@H]21)C3(C)C
10 | -1 | CC(=O)O[C@@]12CO[C@@H]1C[C@H](O)[C@@]1(C)C(=O)[C@H](O)C3=C(C)[C@@H](OC(=O)[C@H](NC(=O)c4ccccc4)[C@@H](O)c4ccccc4)C[C@@](O)([C@@H](OC(=O)c4ccccc4)[C@H]21)C3(C)C
1.2 | -0.0792 | CC(=O)O[C@@]12CO[C@@H]1C[C@H](OC(=O)CN)[C@@]1(C)C(=O)[C@H](OC(=O)CN)C3=C(C)[C@@H](OC(=O)[C@H](O)[C@@H](NC(=O)OC(C)(C)C)c4ccccc4)C[C@@](O)([C@@H](OC(=O)c4ccccc4)[C@H]21)C3(C)C
100 | -2 | C/C=C/C(=O)O[C@H]1C[C@@]2(O)[C@@H](OC(=O)c3ccccc3)[C@@H]3[C@]4(OC(C)=O)CO[C@@H]4C[C@H](O)[C@@]3(C)C(=O)[C@H](OC(C)=O)C(=C1C)C2(C)C
17 | -1.23 | CC(=O)O[C@@]12CO[C@@H]1C[C@H](O)[C@@]1(C)C(=O)[C@H](O)C3=C(C)[C@@H](OC(=O)CCc4ccccc4)C[C@@](O)([C@@H](OC(=O)c4ccccc4)[C@H]21)C3(C)C
10 | -1 | CC(=O)O[C@H]1C(=O)[C@@]2(C)[C@H]([C@H](OC(=O)c3ccccc3)[C@]3(O)C[C@H](OC(=O)[C@H](NC(=O)c4ccccc4)[C@@H](O)c4ccccc4)C(C)=C1C3(C)C)[C@]1(OC(C)=O)CO[C@@H]1C[C@@H]2O
0.6 | 0.222 | COc1ccc(C(=O)N[C@@H](c2ccccc2)[C@@H](O)C(=O)O[C@H]2C[C@@]3(O)[C@@H](OC(=O)c4ccccc4)[C@@H]4[C@]5(OC(C)=O)CO[C@@H]5C[C@H](O)[C@@]4(C)C(=O)[C@H](OC(C)=O)C(=C2C)C3(C)C)cc1
1.7 | -0.23 | CC(=O)O[C@H]1C(=O)[C@]2(C)[C@@H](OC(=O)c3ccccc3)C[C@H]3OC[C@@]3(OC(C)=O)[C@H]2[C@H](OC(=O)c2ccccc2)[C@]2(O)C[C@H](OC(=O)[C@H](O)[C@@H](NC(=O)c3ccccc3)c3ccccc3)C(C)=C1C2(C)C

Compound | ID50 ratio (Tubulin (Homo sapiens) [1]) | Log 1/ratio (Tubulin (Homo sapiens) [2])
CC(=O)O[C@H]1C(=O)[C@@]2(C)[C@H]([C@H](OC(=O)c3ccccc3)[C@]3(O)C[C@H](OC(=O)[C@H](O)[C@@H](NC(=O)c4ccccc4)c4ccc(F)cc4)C(C)=C1C3(C)C)[C@]1(OC(C)=O)CO[C@@H]1C[C@@H]2O | 1.1 | -0.0414
COc1ccc([C@H](NC(=O)c2ccccc2)[C@@H](O)C(=O)O[C@H]2C[C@@]3(O)[C@@H](OC(=O)c4ccccc4)[C@@H]4[C@]5(OC(C)=O)CO[C@@H]5C[C@H](O)[C@@]4(C)C(=O)[C@H](OC(C)=O)C(=C2C)C3(C)C)cc1 | 0.5 | 0.301
CC(=O)O[C@@]12CO[C@@H]1C[C@H](O)[C@@]1(C)C(=O)[C@H](O)C3=C(C)[C@@H](OC(=O)[C@H](O)[C@@H](NC(=O)c4ccccc4)c4ccccc4)C[C@@](O)([C@@H](OC(=O)c4ccccc4)[C@H]21)C3(C)C | 1.3 | -0.114
CC(=O)O[C@@]12CO[C@@H]1C[C@H](O)[C@@]1(C)C(=O)[C@H](O)C3=C(C)[C@@H](OC(=O)[C@@H](O)[C@H](NC(=O)c4ccccc4)c4ccccc4)C[C@@](O)([C@@H](OC(=O)c4ccccc4)[C@H]21)C3(C)C | 4 | -0.602
CC(=O)O[C@H]1C(=O)[C@@]2(C)[C@H]([C@H](OC(=O)c3ccccc3)[C@]3(O)C[C@H](OC(=O)[C@H](O)[C@@H](NC(=O)c4ccc(Cl)cc4)c4ccccc4)C(C)=C1C3(C)C)[C@]1(OC(C)=O)CO[C@@H]1C[C@@H]2O | 2.4 | -0.38
CC(=O)O[C@H]1C(=O)[C@@]2(C)[C@H]([C@H](OC(=O)c3ccccc3)[C@]3(O)C[C@H](OC(=O)[C@H](O)[C@@H](NC(=O)C(C)=O)c4ccccc4)C(C)=C1C3(C)C)[C@]1(OC(C)=O)CO[C@@H]1C[C@@H]2O | 3.5 | -0.544
CC(=O)O[C@H]1C(=O)[C@@]2(C)[C@H]([C@H](OC(=O)c3ccccc3)[C@]3(O)C[C@H](OC(=O)[C@H](O)[C@@H](NC(=O)c4ccccc4)c4ccc(Cl)cc4)C(C)=C1C3(C)C)[C@]1(OC(C)=O)CO[C@@H]1C[C@@H]2O | 1.9 | -0.279
CC(=O)O[C@@]12CO[C@@H]1C[C@H](O)[C@@]1(C)C(=O)[C@H](O)C3=C(C)[C@@H](OC(=O)[C@@H](O)[C@@H](NC(=O)c4ccccc4)c4ccccc4)C[C@@](O)([C@@H](OC(=O)c4ccccc4)[C@H]21)C3(C)C | 1.3 | -0.114
